Data: publication PMC11410943 (Nature Communications, 2024)
≈ marks a conversion by molar mass, not a printed value.

Legend:
E. coli [1] = assay: Neutropenic mouse; format: in vivo; conditions: SC every 8 h, wild-type and MDR isolates
P. mirabilis = assay: MIC; conditions: Proteus mirabilis, read-out: median MIC
Permeability = format: in vitro ADME
Enterococcus faecalis = assay: MIC; conditions: read-out: median MIC
E. coli [2] = assay: Killing kinetics assay; format: cell-based; conditions: 0.5X to 16X MIC, susceptible and MDR strains
Enterobacter cloacae = assay: MIC; conditions: Enterobacter cloacae
[3] = test system: diverse Gram-negative pathogens
Acinetobacter baumannii = assay: MIC; conditions: Acinetobacter baumannii
Escherichia coli = assay: MIC
P. aeruginosa = assay: Neutropenic rat lung infection model; conditions: IV infusion, MDR isolates
[4] = Dog 14-day GLP toxicology; format: in vivo
A. baumannii = format: cell-based
[5] = Dog pharmacokinetic study; format: in vivo, Beagle dog; conditions: dogs
[6] = Rat 14-day GLP toxicology / toxicokinetics; format: in vivo
Klebsiella pneumoniae = assay: MIC
[7] = molecular target: acetylcholine esterase (AChE) (Homo sapiens, UniProt P22303); assay: AChE inhibition, reversibility on dilution; format: biochemical; conditions: 30 μM, 100-fold dilution to 0.3 μM, excess AChE
[8] = read-out: median MIC, panel of ATCC strains
[9] = IHMA/CARB-X MDR clinical isolates 2019, N=300

Chain of acetylcholine esterase (AChE) (P22303 32-614): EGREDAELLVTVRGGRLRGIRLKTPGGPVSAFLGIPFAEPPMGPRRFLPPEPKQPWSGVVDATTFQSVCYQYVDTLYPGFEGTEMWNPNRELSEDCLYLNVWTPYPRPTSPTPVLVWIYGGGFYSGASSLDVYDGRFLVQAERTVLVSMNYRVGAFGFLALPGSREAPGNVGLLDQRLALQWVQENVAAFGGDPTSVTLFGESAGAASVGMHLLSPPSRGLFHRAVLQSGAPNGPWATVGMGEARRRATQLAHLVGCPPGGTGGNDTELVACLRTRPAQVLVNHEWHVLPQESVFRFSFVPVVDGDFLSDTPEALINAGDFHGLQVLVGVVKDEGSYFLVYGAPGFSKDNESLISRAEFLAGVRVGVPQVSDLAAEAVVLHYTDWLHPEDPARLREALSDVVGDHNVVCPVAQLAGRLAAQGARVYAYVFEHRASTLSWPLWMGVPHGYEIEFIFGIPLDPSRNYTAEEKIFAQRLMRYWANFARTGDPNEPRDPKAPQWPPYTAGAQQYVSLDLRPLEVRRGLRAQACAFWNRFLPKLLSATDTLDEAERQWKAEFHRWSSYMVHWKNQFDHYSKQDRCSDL

With Cn1c(=O)ccc2ccc(F)c(CCNC[C@H]3CN(c4cnc5c(n4)NC(=O)CO5)C(=O)O3)c21 [BWC0977, 6-[(5S)−5-[[[2-(7-Fluoro-1,2-dihydro-1-methyl-2-oxo-8-quinolinyl)ethyl]amino]methyl]−2-oxo-3-oxazolidinyl]−2H-pyrazino[2,3-b]−1,4-oxazin-3(4H)-one] the “dose-ranging efficacy (bacterial burden)” value (E. coli [1]) was “excellent dose-response”, the MIC (P. mirabilis) was 0.12 µg/mL (≈ 0.256 µM) and the permeability (Permeability) was “low permeability”. For the same molecule, the MIC (Enterococcus faecalis) was 0.06 µg/mL (≈ 0.128 µM), the “in vitro killing kinetics” value (E. coli [2]) was “significant bactericidal activity” and the MIC90 (Enterobacter cloacae; IHMA/CARB-X MDR clinical isolates 2019, N=152) was 2 µg/mL (≈ 4.27 µM). For the same molecule, the MIC (Enterobacter cloacae; [8]) was 0.06 µg/mL (≈ 0.128 µM), the spontaneous resistance frequency [3] was < 10^−9 and the MIC90 (Acinetobacter baumannii; IHMA/CARB-X MDR clinical isolates 2019, N=298) was 1 µg/mL (≈ 2.13 µM). For the same molecule, the MIC (Acinetobacter baumannii; [8]) was 0.06 µg/mL (≈ 0.128 µM), the MIC (Escherichia coli; Escherichia coli, read-out: median MIC, panel of ATCC strains) was 0.03 µg/mL (≈ 0.064 µM) and the MIC90 (Escherichia coli; [9]) was 0.5 µg/mL (≈ 1.07 µM). For the same molecule, the dose-response efficacy (P. aeruginosa) was “excellent bactericidal dose-response”, the microscopic findings ([4]; dose levels above 40 mg/kg/day) was “Microscopic changes consistent with hepatobiliary toxicity” and the NOAEL at 14 day ([4]; in vivo) was 40 mg/kg/day. For the same molecule, the AUC(0-t) ([4]; in vivo, 40 mg/kg/day) was 90000 ng·h/mL, the Cmax ([4]; in vivo, 40 mg/kg/day) was 25000 ng/mL and the “in vitro killing kinetics” value (A. baumannii) was “significant bactericidal activity”. The “unchanged drug excreted in urine” value [5] was 10%, the “AUC0–24 at NOAEL” value ([6]; 75 mg/kg/day) was 52000 ng·h/mL and the NOAEL at 14 day ([6]; in vivo) was 75 mg/kg/day. The Cmax ([6]; in vivo, 75 mg/kg/day) was 26000 ng/mL, the AUC(0-t) ([6]; in vivo, 250 mg/kg/day, AUC0–24 at highest dose level) was 355000 ng·h/mL and the microscopic findings ([6]; up to 250 mg/kg/day) was “no microscopic findings”. The MIC90 (Klebsiella pneumoniae; [9]) was 2 µg/mL (≈ 4.27 µM), the MIC (Klebsiella pneumoniae; Klebsiella pneumoniae, read-out: median MIC, panel of ATCC strains) was 0.03 µg/mL (≈ 0.064 µM) and the “reversibility of AChE inhibition” value [7] was “rapidly reversed”.
